Experimental data taken from PubChem BioAssay AID322 (DTP/NCI, 2004).
Several values for one entry are separate records, joined by “and”; a condition that tells them apart may be missing. Identical values can stand only once. Inconclusive results and toxic doses are left out. *1 amine or outer side, *2 acyl side, *3 side chain or, on linkers, in order; H or OH if unused. Where a SMILES comes first, the peptide text is derived from it. Bridges are numbered along the chain shown (N, C = ends). Roman numbers before positions name the chains, in order. [ ]: non-standard residue; d: D form. Actinocin(9to1) = Cc1c2oc3c(C)ccc(C(=O)[*:1])c3nc-2c(C(=O)[*:2])c(N)c1=O; aThr = C[C@H](O)[C@H](N)C(=O)O; NMeV = CN[C@H](C(=O)O)C(C)C; Sar = CNCC(=O)O

System: CD2F1 mice, P388/ADR leukemia ip, median survival T/C
Assay: NCI In Vivo Anticancer Drug Screen. Data for tumor model P388 Leukemia resistant to Adriamycin; NSC 123127, Developed at Scr 08 (intraperitoneal) in CD2F1 (CDF1) mice
Settings: endpoint: median survival time, higher = longer survival
Protocol: The antitumor activity of compounds was measured in mice bearing transplantable tumors. Survival or tumor size were measured and the results are expressed as the measurement made in the treated group (T) divided by the measurement made in the vehicle treated control group (C). The tumor model used in this assay is P388 Leukemia resistant to Adriamycin; NSC 123127, Developed at Scr 08 (intraperitoneal) in CD2F1 (CDF1) mice

[1] = dose: 50.0 mg/kg/injection, schedule: Q01DX005 (ip), vehicle: saline with Tween-80
[2] = dose: 100.0 mg/kg/injection, schedule: Q01DX005 (ip), vehicle: saline with Tween-80
[3] = dose: 25.0 mg/kg/injection, schedule: Q01DX005 (ip), vehicle: saline with Tween-80

NC(N)=NS(=O)(=O)c1ccc(NCc2c3ccccc3nc3ccccc23)cc1
T/C (dose: 50.0 mg/kg/injection, schedule: Q04DX003 (ip), vehicle: Klucel (hydroxypropylcellulose) (HPC)): 101 % of control | T/C (dose: 100.0 mg/kg/injection, schedule: Q04DX003 (ip), vehicle: Klucel (hydroxypropylcellulose) (HPC)): 97 % of control | T/C (dose: 200.0 mg/kg/injection, schedule: Q04DX003 (ip), vehicle: Klucel (hydroxypropylcellulose) (HPC)): 100 % of control | T/C (dose: 400.0 mg/kg/injection, schedule: Q04DX003 (ip), vehicle: Klucel (hydroxypropylcellulose) (HPC)): 87 % of control

NCCCN=c1ccc2c3c1c(O)c1c(O)ccc(=O)c1c3[nH]n2CCNCCO
T/C (dose: 25.0 mg/kg/injection, schedule: Q01DX001 (ip), vehicle: water): 107 % of control

BrC[P+](CBr)(CBr)CBr
T/C [1]: 109 % of control and 119 % of control | T/C [2]: 115 % of control | T/C (dose: 144.0 mg/kg/injection, schedule: Q01DX005 (ip), vehicle: saline with Tween-80): 111 % of control | T/C (dose: 240.0 mg/kg/injection, schedule: Q01DX005 (ip), vehicle: saline with Tween-80): 112 % of control | T/C (dose: 666.67 mg/kg/injection, schedule: Q01DX005 (ip), vehicle: saline with Tween-80): 166 % of control

CSC1SCC2C(=O)N(C)C(C(C)C)C(=O)OCC(NC(=O)c3cnc4ccccc4n3)C(=O)NC(C)C(=O)N(C)C1C(=O)N(C)C(C(C)C)C(=O)OCC(NC(=O)c1cnc3ccccc3n1)C(=O)NC(C)C(=O)N2C (stereo not drawn)
T/C (dose: 44.0 micrograms/kg/injection, schedule: Q01DX005 (ip), vehicle: saline): 152 % of control | T/C (dose: 100.0 micrograms/kg/injection, schedule: Q01DX005 (ip), vehicle: saline): 151 % of control | T/C (dose: 150.0 micrograms/kg/injection, schedule: Q01DX005 (ip), vehicle: saline): 152 % of control

CC[C@@]1(O)CC(OC2CC(N3CCOCC3)C(O)C(C)O2)c2c(O)c3c(c(O)c2[C@H]1O)C(=O)c1cccc(O)c1C3=O (stereo partly drawn)
T/C (dose: 3.0 mg/kg/injection, schedule: Q04DX003 (iv), vehicle: saline): 160 % of control

[CH3][Sn]([CH3])([Cl])[c]1cc[c]([Sn]([CH3])([CH3])[Cl])cc1
T/C (dose: 0.19 mg/kg/injection, schedule: Q01DX005 (ip), vehicle: suspension in saline): 96 % of control | T/C (dose: 0.39 mg/kg/injection, schedule: Q01DX005 (ip), vehicle: suspension in saline): 105 % of control | T/C (dose: 0.78 mg/kg/injection, schedule: Q01DX005 (ip), vehicle: suspension in saline): 114 % of control | T/C (dose: 1.56 mg/kg/injection, schedule: Q01DX005 (ip), vehicle: suspension in saline): 114 % of control

COc1ccc(C(C)c2cc3c(cc2OC)OCO3)cc1 (stereo not drawn)
T/C (dose: 12.5 mg/kg/injection, schedule: Q01DX005 (ip), vehicle: saline with Tween-80): 105 % of control | T/C [3]: 109 % of control | T/C [1]: 119 % of control

Nc1nc(F)nc2c1ncn2C1OC(COP(=O)(O)O)C(O)C1O (stereo not drawn)
T/C (dose: 60.0 mg/kg/injection, schedule: Q01DX009 (ip), vehicle: saline): 219 % of control and 239 % of control | T/C (dose: 90.0 mg/kg/injection, schedule: Q01DX009 (ip), vehicle: saline): 309 % of control and 429 % of control | T/C (dose: 134.0 mg/kg/injection, schedule: Q01DX009 (ip), vehicle: saline): 309 % of control and 445 % of control | T/C (dose: 200.0 mg/kg/injection, schedule: Q01DX009 (ip), vehicle: saline): 309 % of control and 394 % of control | T/C (dose: 250.0 mg/kg/injection, schedule: Q01DX009 (ip), vehicle: saline): 108 % of control

Nc1ccc2c(c1)CN1C(=O)c3ccccc3C1=N2
T/C (dose: 33.0 mg/kg/injection, schedule: Q01DX009 (ip), vehicle: saline with Tween-80): 215 % of control (2×) and 265 % of control | T/C (dose: 50.0 mg/kg/injection, schedule: Q01DX009 (ip), vehicle: saline with Tween-80): 270 % of control and 278 % of control and 297 % of control | T/C (dose: 75.0 mg/kg/injection, schedule: Q01DX009 (ip), vehicle: saline with Tween-80): 277 % of control and 297 % of control and 336 % of control | T/C (dose: 75.0 mg/kg/injection, schedule: Q01DX009 (oral), vehicle: saline with Tween-80): 102 % of control | T/C (dose: 112.0 mg/kg/injection, schedule: Q01DX009 (ip), vehicle: saline with Tween-80): 120 % of control | T/C (dose: 112.0 mg/kg/injection, schedule: Q01DX009 (oral), vehicle: saline with Tween-80): 104 % of control | T/C (dose: 169.0 mg/kg/injection, schedule: Q01DX009 (ip), vehicle: saline with Tween-80): 121 % of control | T/C (dose: 169.0 mg/kg/injection, schedule: Q01DX009 (oral), vehicle: saline with Tween-80): 105 % of control | T/C (dose: 252.2 mg/kg/injection, schedule: Q01DX009 (oral), vehicle: saline with Tween-80): 118 % of control | T/C (dose: 378.2 mg/kg/injection, schedule: Q01DX009 (oral), vehicle: saline with Tween-80): 124 % of control

O=NNc1cnccn1
T/C (dose: 11.0 mg/kg/injection, schedule: Q01DX009 (ip), vehicle: water): 165 % of control and 171 % of control | T/C (dose: 17.0 mg/kg/injection, schedule: Q01DX009 (ip), vehicle: water): 201 % of control and 206 % of control | T/C (dose: 25.0 mg/kg/injection, schedule: Q01DX009 (ip), vehicle: water): 240 % of control and 246 % of control | T/C (dose: 37.5 mg/kg/injection, schedule: Q01DX009 (ip), vehicle: water): 277 % of control and 313 % of control | T/C (dose: 56.0 mg/kg/injection, schedule: Q01DX009 (ip), vehicle: water): 107 % of control and 117 % of control

Nc1ccc2ccc(NS(=O)(=O)N3CCCCC3)cc2c1
T/C [3]: 111 % of control | T/C [1]: 107 % of control | T/C [2]: 106 % of control | T/C (dose: 200.0 mg/kg/injection, schedule: Q01DX005 (ip), vehicle: saline with Tween-80): 101 % of control | T/C (dose: 400.0 mg/kg/injection, schedule: Q01DX005 (ip), vehicle: saline with Tween-80): 99 % of control

COC1CC2C=C(C)/C=C/C=C/C(=O)NC(c3ccccc3)C/C=C/CCC(O)CC(=O)C2=C1O (stereo not drawn)
T/C (dose: 3.12 mg/kg/injection, schedule: Q01DX005 (ip), vehicle: Klucel (hydroxypropylcellulose) (HPC)): 101 % of control | T/C (dose: 6.25 mg/kg/injection, schedule: Q01DX005 (ip), vehicle: Klucel (hydroxypropylcellulose) (HPC)): 116 % of control

C[C@H](N)C(=O)N[C@@H]1[C@H]2C(=C(O)C[C@@H](O)[C@@H]2O)C(=O)O[C@@H]1C
T/C (dose: 150.0 mg/kg/injection, schedule: Q01DX005 (ip), vehicle: saline): 100 % of control and 105 % of control | T/C (dose: 300.0 mg/kg/injection, schedule: Q01DX005 (ip), vehicle: saline): 100 % of control and 104 % of control | T/C (dose: 600.0 mg/kg/injection, schedule: Q01DX005 (ip), vehicle: saline): 98 % of control and 105 % of control | T/C (dose: 1200.0 mg/kg/injection, schedule: Q01DX005 (ip), vehicle: saline): 97 % of control and 103 % of control

O=P1(N(CCCl)CCCl)NCCCO1 (stereo not drawn)
T/C (dose: 12.5 mg/kg/injection, schedule: Q01DX005 (ip), vehicle: saline): 154 % of control | T/C (dose: 25.0 mg/kg/injection, schedule: Q01DX005 (ip), vehicle: saline): 165 % of control and 189 % of control | T/C (dose: 50.0 mg/kg/injection, schedule: Q01DX005 (ip), vehicle: saline): 191 % of control and 217 % of control | T/C (dose: 100.0 mg/kg/injection, schedule: Q01DX005 (ip), vehicle: saline): 171 % of control and 309 % of control

CN(C)CCN1C(=O)c2cccc3cc(N)cc(c23)C1=O
T/C (dose: 7.0 mg/kg/injection, schedule: Q01DX009 (ip), vehicle: saline with Tween-80): 109 % of control and 117 % of control | T/C (dose: 11.0 mg/kg/injection, schedule: Q01DX009 (ip), vehicle: saline with Tween-80): 116 % of control | T/C (dose: 16.0 mg/kg/injection, schedule: Q01DX009 (ip), vehicle: saline with Tween-80): 106 % of control and 113 % of control | T/C (dose: 24.0 mg/kg/injection, schedule: Q01DX009 (ip), vehicle: saline with Tween-80): 112 % of control and 116 % of control

COc1cc(NCc2ccc3nc(N)nc(N)c3c2C)cc(OC)c1OC
T/C (dose: 18.0 mg/kg/injection, schedule: Q01DX009 (ip), vehicle: distilled water + Tween-80): 112 % of control | T/C (dose: 27.0 mg/kg/injection, schedule: Q01DX009 (ip), vehicle: distilled water + Tween-80): 118 % of control | T/C (dose: 40.0 mg/kg/injection, schedule: Q01DX009 (ip), vehicle: distilled water + Tween-80): 156 % of control | T/C (dose: 60.0 mg/kg/injection, schedule: Q01DX009 (ip), vehicle: distilled water + Tween-80): 184 % of control | T/C (dose: 110.0 mg/kg/injection, schedule: Q01DX009 (ip), vehicle: distilled water + Tween-80): 94 % of control

Cc1c2oc3c(C)ccc(C(=O)N[C@@H]4C(=O)N[C@H](C(C)C)C(=O)N5CCC[C@H]5C(=O)N(C)CC(=O)N(C)[C@@H](C(C)C)C(=O)O[C@H]4C)c3nc-2c(C(=O)N[C@@H]2C(=O)N[C@H](C(C)C)C(=O)N3CCC[C@H]3C(=O)N(C)CC(=O)N(C)[C@@H](C(C)C)C(=O)O[C@H]2C)c(N)c1=O (I: [aThr][dV]P[Sar][NMeV] / II: [aThr][dV]P[Sar][NMeV]; ester I:1-I:C, II:1-II:C; linker I:N-II:N via Actinocin(9to1))
T/C (dose: 25.0 micrograms/kg/injection, schedule: Q01DX005 (ip), vehicle: saline + alcohol): 124 % of control | T/C (dose: 50.0 micrograms/kg/injection, schedule: Q01DX005 (ip), vehicle: saline + alcohol): 120 % of control | T/C (dose: 100.0 micrograms/kg/injection, schedule: Q01DX005 (ip), vehicle: saline + alcohol): 101 % of control
